A melting point compilation (Tetko et al.)

Row | melting point [°C] | SMILES
1 | 150 to 152 | CCCCCCCCCCCCCCCCCCSCCOC1OC(COC(C)=O)C(OC2OC(COC(C)=O)C(OC3OC(COC(C)=O)C(OC(C)=O)C(OC(C)=O)C3OC(C)=O)C(OC(C)=O)C2OC(C)=O)C(OC(C)=O)C1N1C(=O)c2ccccc2C1=O (stereo not given)
2 | 44 to 46 | CCCCCCCCCCCCCCCC(=O)OCC(COC(=O)CCCCCCCCCCCCCCC)OC(=O)CCCC(=O)Oc1cc(Cl)ccc1Oc1ccc(Cl)cc1Cl
3 | 110 | CCCCCCCCCCCCSc1cc(SCCCCCCCCCCCC)c2ccc3c(SCCCCCCCCCCCC)cc(SCCCCCCCCCCCC)c4ccc1c2c43
4 | 232 to 233 | CCCCCCCCCCCCc1ccsc1-c1ccc2c(c1)=C(C(C#N)C#N)c1cc3c(cc1=2)C(C(C#N)C#N)=c1cc(-c2sccc2CCCCCCCCCCCC)ccc1=3
5 | 161 to 163 | C=CCN1C(C)(C)CC(N(CCCC)c2nc(N(CCCC)C3CC(C)(C)N(CC=C)C(C)(C)C3)nc(N(CCCC)C3CC(C)(C)N(CC=C)C(C)(C)C3)n2)CC1(C)C
